In patent US5149648A, “Enzymes employed for producing pulps” (Kabushiki Kaisha Kobe Seiko Sho, priority 1989, dated 1992):
Read-outs that look alike come from different tables or passages of the source.

Key:
F-3 = assay type: biochemical, NK-1148 strain
Experimental: (§1) The results of measuring enzyme activities of the enzymes of this invention (F-1, F-2 and F-3) after adding each of various substances are as follows.
(§2) 20 μl of the enzyme of this invention is made to react with a reaction solution consisting of 10 μl of a 10 mM syringylglycerol-β-syringylether solution which contains a small amount of dioxane and 720 μl of a 50 mM acetate buffer solution (pH 5.0) and increases of absorbance at 300 nm are measured.
(§3) Enzyme activity producing a 0.01 increase of absorbance during one minute is supposed to be one unit.

F-2 = assay type: biochemical, NK-1148 strain
Experimental: as §1, §2, §3

F-1 = assay type: biochemical, NK-1148 strain
Experimental: as §1, §2, §3

[1] = tested on: NK-1148 strain (FERM BP-1859); assay: Effect of lignin-related substances on the enzyme production; assay type: cell-based; conditions: 0.2% of substance added after 7 days culture, further cultured at 28° C. for one day
Experimental: as §2, §3
After 100 ml of a medium of the same composition as that used in Example 3 was placed in a 500 ml Erlenmeyer flask and sterilized at 120° C. for 15 minutes, NK-1148 strain (FERM BP-1859) was inoculated into the medium and cultured at 28° C. for 7 days.

[2] = substance added at 1 mM, no addition = 100%
[3] = substance added at 0.5 mM, no addition = 100%

## OCCS [2-Mercapto-ethanol]
F-3; [2]
  Relative Activity F-3: 15%
F-2; [2]
  Relative Activity F-2: 19%
F-1; [2]
  Relative Activity F-1: 10%

## [Cl][Al]([Cl])[Cl] [AlCl3]
F-3; [2]
  Relative Activity F-3: 65%
F-2; [2]
  Relative Activity F-2: 65%
F-1; [2]
  Relative Activity F-1: 61%

## [Ba+2].[Cl-].[Cl-] [BaCl2]
F-3; [2]
  Relative Activity F-3: 95%
F-2; [2]
  Relative Activity F-2: 95%
F-1; [2]
  Relative Activity F-1: 93%

## OCc1ccccc1 [Benzyl alcohol, benzyl alcohol]
[1]
  Enzymatic activity: 0.01 Unit/ml

## [Ca+2].[Cl-].[Cl-] [CaCl2]
F-3; [2]
  Relative Activity F-3: 95%
F-2; [2]
  Relative Activity F-2: 95%
F-1; [2]
  Relative Activity F-1: 94%

## [Cl-].[Cl-].[Co+2] [CoCl2]
F-3; [2]
  Relative Activity F-3: 96%
F-2; [2]
  Relative Activity F-2: 94%
F-1; [2]
  Relative Activity F-1: 97%

## [Cl][Cu][Cl] [CuCl2]
F-3; [2]
  Relative Activity F-3: 100%
F-2; [2]
  Relative Activity F-2: 92%
F-1; [2]
  Relative Activity F-1: 102%

## N[C@@H](CS)C(=O)O [Cysteine]
F-3; [2]
  Relative Activity F-3: 13%
F-2; [2]
  Relative Activity F-2: 21%
F-1; [2]
  Relative Activity F-1: 11%

## O=C(O)CN(CCN(CC(=O)O)CC(=O)O)CC(=O)O [EDTA]
F-3; pH 5, 1000 µM
  Relative Activity F-3: 101
F-2; pH 5, 1000 µM
  Relative Activity F-2: 102
F-1; pH 5, 1000 µM
  Relative Activity F-1: 98

## [Cl][Fe]([Cl])[Cl] [FeCl3]
F-3; [3]
  Relative Activity F-3: 25%
F-2; [3]
  Relative Activity F-2: 31%
F-1; [3]
  Relative Activity F-1: 15%

## [Cl][Hg][Cl] [HgCl2]
F-3; [2]
  Relative Activity F-3: 18%
F-2; [2]
  Relative Activity F-2: 21%
F-1; [2]
  Relative Activity F-1: 11%

## [Cl-].[Cl-].[Mg+2] [MgCl2]
F-3; [2]
  Relative Activity F-3: 95%
F-2; [2]
  Relative Activity F-2: 94%
F-1; [2]
  Relative Activity F-1: 94%

## [Cl][Mn][Cl] [MnCl2]
F-3; [2]
  Relative Activity F-3: 95%
F-2; [2]
  Relative Activity F-2: 95%
F-1; [2]
  Relative Activity F-1: 95%

## [N-]=[N+]=[N-].[Na+] [NaN3]
F-3; [2]
  Relative Activity F-3: 20%
F-2; [2]
  Relative Activity F-2: 23%
F-1; [2]
  Relative Activity F-1: 14%

## CCCCCCCCCCCCOS(=O)(=O)[O-].[Na+] [SDS, sodium dodecyl sulfate]
F-3; [2]
  Relative Activity F-3: 103%
F-2; [2]
  Relative Activity F-2: 101%
F-1; [2]
  Relative Activity F-1: 106%

## COc1cc(CO)cc(OC)c1O [Syringyl alcohol, syringyl alcohol]
[1]
  Enzymatic activity: 4.0 Unit/ml

## COc1cc(C(O)C(CO)Oc2c(OC)cccc2OC)cc(OC)c1O (stereo not drawn) [Syringylglycerol-β-syringylether, syringylglycerol-β-syringylether]
[1]
  Enzymatic activity: 3.9 Unit/ml

## COc1cc(CO)ccc1O [Vanillyl alcohol, vanillyl alcohol]
[1]
  Enzymatic activity: 3.95 Unit/ml

## COc1ccc(CO)cc1OC [Veratryl alcohol, veratryl alcohol]
[1]
  Enzymatic activity: 0.05 Unit/ml

## [Cl-].[Cl-].[Zn+2] [ZnCl3]
F-3; [2]
  Relative Activity F-3: 94%
F-2; [2]
  Relative Activity F-2: 93%
F-1; [2]
  Relative Activity F-1: 94%
